# Test results reported in US12428428B2, “Tricyclic tetrahydroisoquinoline derivative, preparation method therefor and application thereof in medicine” (JIANGSU HENGRUI MEDICINE CO., LTD., priority 2020, dated 2025).
# Key:
# Type in all cases: cell-based
# MCF-7 cells = assay: Inhibition of proliferation of MCF-7 cells (ATP method, Cell Titer-Glo); conditions: Homo sapiens, MCF7; MCF-7 cells, 72 h
# Description: This experiment was intended to test the inhibitory effects of the compounds disclosed herein on the proliferation of MCF-7 Cells by using the ATP method, and to evaluate the in vitro activity of the compounds according to the IC50 values.
# MCF-7 cells (TCHu74, National Collection of Authenticated Cell Cultures) were seeded into a 96-well plate with an MEM (hyclone, SH30024.01B) medium containing 10% FBS (Gibco, 10099-141), 1% sodium pyruvate (sigma, 58636) and 1% non-essential amino acid (sigma, M7145) at a density of 4,000 cells/well and cultured at 37° C. with 5% CO2. 20 mM stock solutions of the compounds are prepared, serially diluted with 100% DMSO to a final concentration of 1000×, and then diluted 20-fold with a medium containing 2% FBS. After the cells were cultured for 24 h, the medium was removed. 90 μL of the medium containing 2% FBS and 10 μL of a drug were added to each well, and 10 μL of DMSO was added to the control group. The mixtures were well mixed by gentle shaking. The blank group contained only 100 μL of the medium containing 2% FBS. The cells were cultured in an incubator at 37° C. with 5% CO2 for 72 h, and then 50 μL of mixed Cell Titer-Glo (Promega, G7571) was added to each well. The mixtures were well mixed by shaking and let stand at room temperature for 10 min, and the chemiluminescence signal values were determined.
# The chemiluminescence signal value was plotted against the compound concentration (in log form) using Graphpad Prism, and the IC50 values of the compounds were obtained.
# [1] = test system: ERα Y537S mutant-expressing MCF7 cells; assay: Inhibition of proliferation of ERα mutant-expressing MCF7 cells; conditions: Homo sapiens, 144 h
# Text: The mutant estrogen receptor α (ERα) Y537S of human ERα protein was obtained by site-directed mutagenesis in a two-primer PCR manner using the cDNA of wild-type ESR1 gene (Accession No. NM000125) as a template. The sequences of the primers used in the mutation are as follows (the underlined nucleotides are the sites of mutation): Y537S: F-AAGAACGTGGTGCCCCTCTCTGACCTGCTGCTGGAGATG (SEQ ID NO: 1); R-CATCTCCAGCAGCAGGTCAGAGAGGGGCACCACGTTCTT (SEQ ID NO: 2). The cDNA of the mutant ESR1 was cloned into the lentiviral vector of interest pCDH-CMV-MCS-EF1-Puro. The lentiviral plasmid bearing the mutant ESR1 gene sequence and the lentiviral packaging plasmid were then transfected into HEK-293T cells (ATCC, CRL-3216) by using Lipofectamine 3000 Transfection Reagent (ThermoFisher Scientific, Cat #L3000075). Forty-eight hours after transfection, the virus-bearing medium supernatant was filtered and ultracentrifuged to obtain a virus precipitate, which was then resuspended in an appropriate amount of medium. The suspension was added to MCF7 cells (ATCC, HTB-22), followed by the addition of polybrene at a final concentration of 8 μg/mL. The mixture was incubated overnight. Two days after transfection, 1 μg/mL puromycin was added to the cell culture liquid for resistance screening. About two weeks later, an MCF7 cell line capable of stably expressing the ERαY537S mutant was obtained.
# The ERα mutant-expressing MCF7 cells were cultured in an MEM (GE Healthcare, SH30024.01) complete medium containing 10% fetal bovine serum. On the first day of the experiment, the cells were seeded into a 96-well plate with complete medium at a density of 3,000 cells/well to form 100 μL of cell suspension per well. The plate was incubated overnight in a cell incubator at 37° C. with 5% CO2. The following day the medium was removed, and 135 μL of an MEM incomplete medium containing 2% fetal bovine serum, and 15 μL of a test compound prepared at different concentrations with the incomplete medium were added to each well. The final concentrations of the compound were 9 concentration points obtained by 4-fold serial dilution from 100 nM. A blank control containing 0.5% DMSO was set. The plate was incubated in a cell incubator at 37° C. with 5% CO2 for 144 h. On day 8, the 96-well cell culture plate was taken out. 150 μL of CellTiter-Glo® Luminescent Cell Viability Assay (Promega, G7573) was added to each well. The plate was let stand at room temperature for 10 min, and the luminescence signal values was read using a multilabel microplate reader (PerkinElmer, VICTOR 3). The IC50 values for the inhibitory activity of the compounds were calculated according to the compound concentrations and the luminescence signal values and are shown in Table 3.
# ERα = ERα (Homo sapiens (Human), UniProt P03372); assay: Degradation of ERα in MCF-7 cells (ELISA); design: Dmax: dose or concentration left out as unconfirmed; conditions: for Dmax at 3 µM: MCF7, read-out: Emax degradation (%); for DC50: MCF-7 cells, 16 to 18 h, read-out: EC50 (nM), degradation of ERα
# Description: ERα-positive breast cancer cell line MCF-7 cells were cultured in a DMEM/F12 medium (HyClone, SH30023.01) containing 10% fetal bovine serum (Corning, 35-010-CV). […] The following day the compounds were serially diluted with DMSO and further diluted with the phenol red-free DMEM/F12 medium containing 5% charcoal-stripped fetal bovine serum. 20 μL of a diluted compound was added to each well of the 48-well plate at final concentrations of 3000, 300, 30, 3, 0.3, 0.03 and 0.003 nM. The 48-well plate was placed in the incubator for 16 to 18 h. A 96-well plate was coated with the capture antibody from the human ERα/NR3A1 total protein assay kit (R&D, DYC5715-5). […] The plate was placed in an incubator at 26° C. overnight. On day 3, the antibody-coated 96-well plate was washed once with PBS, and 200 μL of PBS containing 1% BSA was added to each well. The plate was incubated in an incubator at 37° C. for 1.5 h to be blocked. The cell culture medium supernatant was discarded. The cells were washed once with PBS, and 60 μL of a cell lysis buffer was added to each well. […] The cells were lysed on ice for 15 min, and 300 μL of PBS containing 1 mM EDTA and 0.5% TritonX-100 was added to each well to dilute the urea to 1 M. The blocking buffer in the blocked 96-well plate was discarded, and 100 μL of diluted cell lysis buffer was added to each well. The plate was incubated in an incubator at 37° C. for 2 h and washed 5 times with PBS. A biotinylated assay antibody was diluted to 0.4 μg/mL with PBS containing 1% BSA, and then 100 μL of the assay antibody was added to each well. The plate was incubated in an incubator at 37° C. for 1 h. The plate was then washed five more times, and 100 μL of avidin-HRP diluted 200-fold with PBS containing 1% BSA was added to each well. The plate was incubated at 37° C. for 30 min. The plate was washed five more times, and 100 μL of TMB substrate was added to each well. The plate was incubated at room temperature until blue color appeared, and 100 μL of stop solution was added to each well. OD450 signal values were read using a PHERAstar multi-mode microplate reader. The IC50 values for the inhibitory activity of the compounds were calculated using Graphpad Prism software.
# Chain of ERα (P03372 whole entry): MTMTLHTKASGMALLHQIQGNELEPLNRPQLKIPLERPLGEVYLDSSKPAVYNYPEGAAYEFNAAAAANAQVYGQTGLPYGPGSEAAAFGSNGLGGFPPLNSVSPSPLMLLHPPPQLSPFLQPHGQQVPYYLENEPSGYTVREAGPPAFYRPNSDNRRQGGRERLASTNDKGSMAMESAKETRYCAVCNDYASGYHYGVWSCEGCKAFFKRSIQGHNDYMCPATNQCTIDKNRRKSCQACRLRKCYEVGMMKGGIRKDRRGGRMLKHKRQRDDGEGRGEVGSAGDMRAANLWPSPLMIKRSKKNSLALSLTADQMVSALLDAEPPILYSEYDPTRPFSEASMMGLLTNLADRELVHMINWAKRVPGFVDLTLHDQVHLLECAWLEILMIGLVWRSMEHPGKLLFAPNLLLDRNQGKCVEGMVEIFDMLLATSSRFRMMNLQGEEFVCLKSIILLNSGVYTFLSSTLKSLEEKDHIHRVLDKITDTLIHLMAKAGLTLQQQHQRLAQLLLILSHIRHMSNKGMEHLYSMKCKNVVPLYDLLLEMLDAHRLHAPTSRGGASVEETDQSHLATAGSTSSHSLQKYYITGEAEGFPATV
SMILES,IC50 (MCF-7 cells),IC50 [1],Dmax at 3 µM (ERα),DC50 (ERα),"Dmax (ERα; MCF7, read-out: Emax degradation (%))"
"[2H]C1([2H])Oc2cc3c(cc2O1)[C@@H](c1ccc(N[C@H]2CCN(CCCF)C2)cn1)N(CC(F)(F)CO)[C@H](C)C3 [Example 12, 2,2-Difluoro-3-((5S,7R)-5-(5-(((S)-1-(3-fluoropropyl)pyrrolidin-3-yl)amino)pyridin-2-yl)-7-methyl-7,8-dihydro-[1,3]dioxolo[4,5-g]isoquinolin-6(5H)-yl-2,2-d2)propan-1-ol]",1.12 nM,3.49 nM,101%,0.15 nM,–
"[2H]C1([2H])Oc2cc3c(cc2O1)[C@@H](c1ccc(NC2CN(CCCF)C2)cn1)N(CC(F)(F)CO)[C@H](C)C3 [Example 13, 2,2-Difluoro-3-((5S,7R)-5-(5-((1-(3-fluoropropyl)azetidin-3-yl)amino)pyridin-2-yl)-7-methyl-7,8-dihydro-[1,3]dioxolo[4,5-g]isoquinolin-6(5H)-yl-2,2-d2)propan-1-ol]",0.29 nM,1.36 nM,–,–,107%
"C[C@@H]1Cc2cc3c(cc2[C@@H](c2ccc(NC4CN(CCCF)C4)cn2)N1CC(F)(F)CO)OCO3 [Example 14, 2,2-Difluoro-3-((5S,7R)-5-(5-((1-(3-fluoropropyl)azetidin-3-yl)amino)pyridin-2-yl)-7-methyl-7,8-dihydro-[1,3]dioxolo[4,5-g]isoquinolin-6(5H)-yl)propan-1-ol]",0.36 nM,1.27 nM,92%,0.5 nM,–
"C[C@@H]1Cc2cc3c(cc2[C@@H](c2ccc(NC4CN(CCCF)C4)cn2)N1CC(F)(F)F)OCO3 [Example 17, N-(1-(3-fluoropropyl)azetidin-3-yl)-6-((5S,7R)-7-methyl-6-(2,2,2-trifluoroethyl)-5,6,7,8-tetrahydro-[1,3]dioxolo[4,5-g]isoquinolin-5-yl)pyridin-3-amine]",0.44 nM,2.19 nM,104%,1.24 nM,–

# The next lines start with results.
IC50 (MCF-7 cells),IC50 [1],Dmax at 3 µM (ERα),DC50 (ERα),SMILES,"Dmax (ERα; MCF7, read-out: Emax degradation (%))"
0.3 nM,0.68 nM,95%,0.15 nM,"C[C@@H]1Cc2cc3c(cc2[C@@H](c2c(F)cc(O[C@H]4CCN(CCCF)C4)cc2F)N1CC(F)(F)F)OCO3 [Example 15, (5S,7R)-5-(2,6-difluoro-4-(((S)-1-(3-fluoropropyl)pyrrolidin-3-yl)oxy)phenyl)-7-methyl-6-(2,2,2-trifluoroethyl)-5,6,7,8-tetrahydro-[1,3]dioxolo[4,5-g]isoquinoline]",–
0.07 nM,0.25 nM,106%,0.1 nM,"C[C@@H]1Cc2cc3c(cc2[C@@H](c2ccc(NC4CN(CCCF)C4)cc2)N1CC(F)(F)CO)OCO3 [Example 18, 2,2-Difluoro-3-((5R,7R)-5-(4-((1-(3-fluoropropyl)azetidin-3-yl)amino)phenyl)-7-methyl-7,8-dihydro-[1,3]dioxolo[4,5-g]isoquinolin-6(5H)-yl)propan-1-ol]",–
0.07 nM,0.43 nM,100%,0.13 nM,"[2H]C1([2H])Oc2cc3c(cc2O1)[C@@H](c1ccc(N[C@H]2CCN(CCCF)C2)cc1)N(CC(F)(F)CO)[C@H](C)C3 [Example 19, 2,2-Difluoro-3-((5R,7R)-5-(4-(((S)-1-(3-fluoropropyl)pyrrolidin-3-yl)amino)phenyl)-7-methyl-7,8-dihydro-[1,3]dioxolo[4,5-g]isoquinolin-6(5H)-yl-2,2-d2)propan-1-ol]",–
